# In patent US7070983B2, “Mutant Pseudomonas putida strains and methods of use thereof” (priority 2003, dated 2006):
# Columns and labels:
# [1] = test system: Str Gen double mutant no. 55; test: Uptake of [14C]4HBA; assay type: cell-based, Pseudomonas putida; conditions: [14C]4HBA at 100 μM, FIG. 3
# Method: (§1) The method described by Thanassi et al. ((1995) J Bacteriol 177:998–1007) was used with some modifications. The bacteria were grown to mid-log phase in HBM medium containing 0.3% 4HBA, washed and resuspended in 0.3% succinate-HBM medium to give OD660=0.7. A 5 ml-aliquot of the bacterial suspension in a 100 ml flask was incubated in a shaker bath. A 0.5 μCi [carboxyl-^14C]4HBA (55 mCi mmol^−1, ARC.) with unlabelled 4HBA at increasing concentrations, were added to the 5 ml bacterial suspension and incubation was continued. At the indicated time, a 0.5 ml aliquot of sample was removed and filtered using a nitrocellulose filter (0.45 μm pore size, Millipore Corp, Bedford, Mass.) which had previously been washed with 2 ml of HBM medium containing 5 mM 4HBA. The sample was applied with a Pipetman, followed by immediate washing with 3 ml of 5 mM 4HBA-HBM medium. The membrane filter was dried, and transferred to a scintillation vial containing Brey's solution, and radioactivity was measured in scintillation spectrometer. From the rate of uptake and the concentration of 4HBA, apparent Km was determined by reciprocal plotting as described by Beman et al ((1983) J Bacteriol 156:1107–1117).
# (§2) Therefore, we first grew cells to mid-log phase in HBM medium containing 0.3% 4HBA and succinate, washed, and resuspended in HBM medium containing only succinate. […]
# Str and Rif mutants = assay type: cell-based, Pseudomonas putida
# Method: as §1, §2
# [2] = test system: P. putida wild-type KH146-2; assay type: cell-based, Pseudomonas putida; conditions: LBH medium, 30° C., 3 days
# Method: (§3) Pseudomonas putida KH146-2 was originally isolated from soil for the capability of growing in the presence of 4-hydroxybenzoate (Chen et al., ((1998) Res Communs Biochem and Cell & Mol Biol 2: 253–274)). HBM medium consists of 50 mM sodium potassium phosphate buffer (pH6.8), 0.1% (NH4)2SO4 and Hutner's base. Hutner's base cotained (per liter) nitrilotriacetic acid, 200 mg; CaCl2.2H2O, 67 mg; (NH4)6Mo7O24.4H2O, 185 μg; MgSO4, 289 mg; EDTA, 2.5 mg; ZnSO4.7H2O, 11 mg; FeSO4.7H2O, 7 mg; MnSO4.H2O, 1.5 mg; CuSO4.5H2O, 390 μg; Co(NO3)2.6H2O, 250 μg, and Na2B4O7.10H2O, 180 μg. LB medium contains 1% tryptone, 0.5% yeast extract, and 1% NaCl (adjusted pH 6.8). LBH medium contains 1% tryptone and 0.5% yeast extract in HBM medium. The bacteria were grown at 30° C. in a shaker at 200 rpm. For tolerance tests, HBM or LBH agar plates containing serially increasing concentrations of an organic chemical were employed. Routinely, 20 to 40 bacterial strains were spot-transplanted with the aid of tooth pick on an agar plate, followed by incubation at 30° C. for 3 days.
# [3] = test system: wild-type and mutant strains; test: Determination of protein synthesis ([14C]leucine incorporation); assay type: cell-based, Pseudomonas putida; conditions: absence or presence (0.6 or 1.2%) of 4HBA; data not shown
# [4] = test system: 4HBA-adapted mutants of wild-type strain KH146-2; test: 4HBA tolerance by sequential adaptation; assay type: cell-based, Pseudomonas putida; conditions: mutants obtained by step by step adaptation
# Method: Wild-type strain KH146-2 was adapted, step by step, to grow in HBM medium containing increasing concentrations (from 0.8% to 5%) of 4HBA. In steps using high concentrations (>3%) of 4HBA, adaptation required a longer term incubation (7˜10 days) for each step. In certain steps, the 4HBA-adapted mutants were isolated using agar plates (containing the adapted concentrations of 4HBA), on which tolerant mutants formed big size colonies.
# [5] = test system: Strain no. 55 (Str Gen double mutant); test: 4HBA tolerance after growth on LB without 4HBA; assay type: cell-based, Pseudomonas putida; conditions: strains grown once on LB medium without 4HBA
# [6] = test system: P. putida strain no. 20 (Rif mutant); test: Tolerance test (MIC) on agar plates; assay type: cell-based, Pseudomonas putida; conditions: LBH medium
# Method: as §3
# [7] = test system: P. putida strain no. 18 (Rif mutant); test: Tolerance test (MIC) on agar plates; assay type: cell-based, Pseudomonas putida; conditions: LBH medium
# Method: as §3
# [8] = test system: P. putida strain no. 12 (Gen mutant); test: Tolerance test (MIC) on agar plates; assay type: cell-based, Pseudomonas putida
# Method: as §3
# [9] = test system: P. putida strain no. 9 (Str mutant); test: Tolerance test (MIC) on agar plates; assay type: cell-based, Pseudomonas putida
# Method: as §3
# [10] = test system: P. putida strain no. 3 (Str mutant); test: Tolerance test (MIC) on agar plates; assay type: cell-based, Pseudomonas putida
# Method: as §3
# [11] = test system: P. putida strain no. 15 (Rif mutant); test: Tolerance test (MIC) on agar plates; assay type: cell-based, Pseudomonas putida
# Method: as §3
# [12] = test system: P. putida strain no. 14 (Rif mutant); test: Tolerance test (MIC) on agar plates; assay type: cell-based, Pseudomonas putida
# Method: as §3
# [13] = test system: P. putida strain no. 17 (Rif mutant); test: Tolerance test (MIC) on agar plates; assay type: cell-based, Pseudomonas putida
# Method: as §3
# [14] = test system: strain no. 3 carrying plasmid pYI433 containing the wild-type rpsL gene; test: Complementation experiment, 4HBA-tolerance; assay type: cell-based, Pseudomonas putida; conditions: strain no. 3 with plasmid containing the rpsL gene
# Excerpt: (§4) To clone the rpsL gene, a 0.9-kb DNA region covering whole rpsL was amplified from the chromosomal DNA of P. putida KH146-2 using KDO DNA polymerase (Toyobo Biochemicals, Osaka). Oligonucleotide primers were designed according to the rpoC-rpsL-rpsG sequence of P. putida KT2440 (www.tigr.org); 5′-[…]-3′ (SEQ ID NO:7—nucleotides [nt]−368 to −341 upstream of rpsL) and 5′-[…]-3′ (SEQ ID NO:8—complementary to nt 107 to 135 downstream of rpsL). The amplified DNA fragments were cloned into plasmid pUC118 (Vieira and Messing, (1987) Methods Enzymol 153: 3–11) to confirm the sequence, then excised from the plasmids as a BamHI-SphI fragment using the restriction sites in the multi-cloning sequence of the vector and inserted between the BglII and SphI sites of the E. coli-Pseudomonas shuttle vector pNIT6010 carrying tet^R, a derivative of pNIT6011 (Nishijyo et al. (2001) Mol Microbiol 40:917–931). The resultant plasmid pYI433, as well as vector control pNIT6010, was introduced into the Str mutant no. 3 (str-1) by conjugation using E. coli HB101/pRK2013 as the helper (Comai et al. (1983) Plasmid 10:21–30). Fifty μg ml^−1 of tetracycline was used for selection of transformants.
# (§5) […]
# [15] = test system: strain no. 3 harbouring a plasmid without rpsL; test: Complementation experiment, 4HBA-tolerance; assay type: cell-based, Pseudomonas putida
# Excerpt: as §4, §5
# Str mutant no. 3 = conditions: read-out: apparent Km of 4HBA uptake, 50 to 500 μM 4HBA
# Method: as §1
# (§6) Therefore, we first grew cells to mid-log phase in HBM medium containing 0.3% 4HBA and succinate, washed, and resuspended in HBM medium containing only succinate. [^14C]4HBA was then added with unlabeled 4HBA at various (50 to 500 μM) concentrations.
# Rif mutant no. 17 = conditions: read-out: apparent Km of 4HBA uptake, 50 to 500 μM 4HBA
# Method: as §1, §6
# wild-type KH146-2 = conditions: read-out: apparent Km of 4HBA uptake; wild-type strain; 50 to 500 μM 4HBA
# Method: as §1, §6
# [16] = test system: 4HBA-tolerant Str, Gen and Rif mutants of P. putida KH146-2; assay type: cell-based, Pseudomonas putida; conditions: the mutants; 4HBA as the sole carbon source
# Method: as §3
# Using several strains randomly chosen as representatives of 4HBA-tolerant mutants, we examined the tolerance level to various organic compounds. […] Tolerance levels to other organic compounds were also examined.
# [17] = test system: P. putida strain no. 19 (rif-5); test: Resistance level to antibiotic on LB agar; assay type: cell-based, Pseudomonas putida; conditions: 1 days on LB agar
# Excerpt: (§7) Spontaneous streptomycin-resistant (Str), gentamicin-resistant (Gen) or rifampicin-resistant (Rif) mutants were obtained from colonies that grew within 3 days after wild-type cells were spread on LB agar containing various concentrations of antibiotic.
# [18] = test system: P. putida strain no. 15 (rif-2); test: Resistance level to antibiotic on LB agar; assay type: cell-based, Pseudomonas putida; conditions: 1 days on LB agar
# Excerpt: as §7
# [19] = test system: P. putida strain no. 24 (rif-4); test: Resistance level to antibiotic on LB agar; assay type: cell-based, Pseudomonas putida; conditions: 1 days on LB agar
# Excerpt: as §7
# [20] = test system: P. putida strain no. 14 (rif-1); test: Resistance level to antibiotic on LB agar; assay type: cell-based, Pseudomonas putida; conditions: 1 days on LB agar
# Excerpt: as §7
# [21] = test system: P. putida strain no. 17 (rif-3); test: Resistance level to antibiotic on LB agar; assay type: cell-based, Pseudomonas putida; conditions: 1 days on LB agar
# Excerpt: as §7
# [22] = test system: P. putida strain no. 21 (rif-3); test: Resistance level to antibiotic on LB agar; assay type: cell-based, Pseudomonas putida; conditions: 1 days on LB agar
# Excerpt: as §7
# [23] = test system: P. putida strain no. 23 (rif-4); test: Resistance level to antibiotic on LB agar; assay type: cell-based, Pseudomonas putida; conditions: 1 days on LB agar
# Excerpt: as §7
# [24] = test system: P. putida strain no. 20 (rif-5); test: Resistance level to antibiotic on LB agar; assay type: cell-based, Pseudomonas putida; conditions: 1 days on LB agar
# Excerpt: as §7
# [25] = test system: P. putida strain no. 18 (rif-4); test: Resistance level to antibiotic on LB agar; assay type: cell-based, Pseudomonas putida; conditions: 1 days on LB agar
# Excerpt: as §7
# [26] = test system: P. putida strain no. 22 (rif-3); test: Resistance level to antibiotic on LB agar; assay type: cell-based, Pseudomonas putida; conditions: 1 days on LB agar
# Excerpt: as §7
# parental strain KH146-2 = test: Antibiotic growth suppression on LB agar; assay type: cell-based, Pseudomonas putida
# Excerpt: as §7
# We first isolated a number of spontaneous streptomycin-resistant (Str), gentamicin-resistant (Gen) and rifampicin-resistant (Rif) mutants of P. putida KH146-2. These mutants appeared at a frequency of 10^−5–10^−6 when KH146-2 cells were spread on LB agar containing various amounts of antibiotics. […] Forty mutants resistant to each antibiotic were randomly selected and examined for tolerance to 4-hydroxybenzoic acid (4HBA). 4HBA-tolerant strains, which could grow in the presence of 1% 4HBA, were detected among these antibiotic resistant mutants at a high frequency of 3 to 15% (Table 1). The highest frequency (15%) was detected in the mutants selected with 1000 μg ml^−1 of streptomycin. These 4HBA-tolerant isolates all grew as well as the parent strain on LB agar.
# [27] = test system: P. putida strain no. 13 (gen); test: Resistance level to antibiotic on LB agar; assay type: cell-based, Pseudomonas putida; conditions: 1 days on LB agar
# Excerpt: as §7
# [28] = test system: P. putida strain no. 12 (gen); test: Resistance level to antibiotic on LB agar; assay type: cell-based, Pseudomonas putida; conditions: 1 days on LB agar
# Excerpt: as §7
# [29] = test system: P. putida strain no. 11 (gen); test: Resistance level to antibiotic on LB agar; assay type: cell-based, Pseudomonas putida; conditions: 1 days on LB agar
# Excerpt: as §7
# [30] = HBM medium, 4HBA as a sole carbon source
compound,measurement,setting,value
"O=C(O)c1ccc(O)cc1 [4HBA, 4-hydroxybenzoate]",uptake of 4HBA,[1],reduced uptake
same,Km values greater than wild-type,Str and Rif mutants; Str and Rif mutants vs wild-type,2 to 3 fold
same,"apparent uptake by the membrane transport system, reduction compared to wild-type",Str and Rif mutants; the mutants vs wild-type strain,2 to 3 fold
same,Tolerance (MIC),[2],1.4 ± 0.1%
same,"degree of suppression of protein synthesis, wild-type vs mutant strains",[3],no difference
same,4HBA concentration tolerated,[4],up to 5%
same,Tolerance to 4HBA,[5]; 3% 4HBA,still showed a tolerance
same,Growth on 4HBA-containing medium,[5]; 5% 4HBA,no longer grew
same,Tolerance (MIC),[6],1.9 ± 0.1%
same,Tolerance (MIC),[7],2.0 ± 0.2%
same,Tolerance (MIC),[8]; [30],(1.6 ± 0.2) %
same,Tolerance (MIC),[8]; LBH medium,1.9 ± 0.3%
same,Tolerance (MIC),[9]; [30],(1.3 ± 0.2) %
same,Tolerance (MIC),[9]; LBH medium,1.6 ± 0.2%
same,Tolerance (MIC),[10]; [30],(1.7 ± 0.1) %
same,Tolerance (MIC),[10]; LBH medium,1.9 ± 0.1%
same,Tolerance (MIC),[11]; [30],(1.2 ± 0.2) %
same,Tolerance (MIC),[11]; LBH medium,1.8 ± 0.2%
same,Tolerance (MIC),[12]; [30],(1.4 ± 0.2) %
same,Tolerance (MIC),[12]; LBH medium,1.8 ± 0.2%
same,Tolerance (MIC),[13]; [30],(1.3 ± 0.1) %
same,Tolerance (MIC),[13]; LBH medium,1.8 ± 0.2%
same,4HBA-tolerance,[14],1%
same,4HBA-tolerance,[15],1.6%
same,Km,Str mutant no. 3,470 µM
same,Km,Rif mutant no. 17,620 µM
same,Km,wild-type KH146-2,240 µM
same,minimum inhibitory concentration (MIC),[16],1.7%
CO[C@H]1/C=C/O[C@@]2(C)Oc3c(C)c(O)c4c(O)c(c(/C=N/N5CCN(C)CC5)c(O)c4c3C2=O)NC(=O)/C(C)=C\C=C\[C@H](C)[C@H](O)[C@@H](C)[C@@H](O)[C@@H](C)[C@H](OC(C)=O)[C@@H]1C [rifampicin],Resistance level to antibiotic,[17],500 (RIF) μg ml^−1
same,Resistance level to antibiotic,[18],>500 (RIF) μg ml^−1
same,Resistance level to antibiotic,[19],500 (RIF) μg ml^−1
same,Resistance level to antibiotic,[20],>500 (RIF) μg ml^−1
same,Resistance level to antibiotic,[21],500 (RIF) μg ml^−1
same,Resistance level to antibiotic,[22],500 (RIF) μg ml^−1
same,Resistance level to antibiotic,[23],500 (RIF) μg ml^−1
same,Resistance level to antibiotic,[24],500 (RIF) μg ml^−1
same,Resistance level to antibiotic,[25],500 (RIF) μg ml^−1
same,Resistance level to antibiotic,[26],500 (RIF) μg ml^−1
same,Concentration completely suppressing growth,parental strain KH146-2,10 µg/mL
gentamicin,Resistance level to antibiotic,[27],50 (GEN) μg ml^−1
same,Resistance level to antibiotic,[28],50 (GEN) μg ml^−1
same,Resistance level to antibiotic,[29],50 (GEN) μg ml^−1
same,Concentration completely suppressing growth,parental strain KH146-2,12 µg/mL
